Assay [1] relates to Streptococcus pneumoniae. Description: Antimicrobial activity against ciprofloxacin-resistant Streptococcus pneumoniae T1 harboring parC mutant gene by agar dilution method. A general note: Agar dilution tests growth on a series of plates holding different concentrations.
The subject of assay [2] is Streptococcus pneumoniae. Description: Antimicrobial activity against ciprofloxacin-resistant Streptococcus pneumoniae T2 harboring gyrA mutant gene by agar dilution method.
The test system of assay [3] is Streptococcus pneumoniae. Kind of assay: Antimicrobial activity against ciprofloxacin-resistant Streptococcus pneumoniae T3 harboring gyrA mutant gene by agar dilution method.
The subject of assay [4] is Streptococcus pneumoniae. Description: Antimicrobial activity against ciprofloxacin-resistant Streptococcus pneumoniae T4 harboring gyrA mutant gene by agar dilution method.
For assay [5], the system named is Streptococcus pneumoniae. Kind of assay: Antimicrobial activity against ciprofloxacin-resistant Streptococcus pneumoniae T16 harboring parC mutant gene by agar dilution method.
Assay [6] deals with Streptococcus pneumoniae. Kind of assay: Antimicrobial activity against ciprofloxacin-resistant Streptococcus pneumoniae T20 harboring gyrA mutant gene by agar dilution method.
The test system of assay [7] is Streptococcus pneumoniae. Description: Antimicrobial activity against ciprofloxacin-resistant Streptococcus pneumoniae T18 harboring gyrA mutant gene by agar dilution method.
Assay [8] deals with Streptococcus pneumoniae. Description: Antimicrobial activity against ciprofloxacin-resistant Streptococcus pneumoniae T19 harboring gyrA mutant gene by agar dilution method.
For assay [9], the system named is Streptococcus pneumoniae. Description: Antimicrobial activity against ciprofloxacin-resistant Streptococcus pneumoniae T21 harboring parC mutant gene by agar dilution method.
Assay [10] has as its system Streptococcus pneumoniae. Description: Antimicrobial activity against ciprofloxacin-resistant Streptococcus pneumoniae T25 harboring gyrA mutant gene by agar dilution method.
In assay [11] the test system is Streptococcus pneumoniae. Description: Antimicrobial activity against ciprofloxacin-resistant Streptococcus pneumoniae T23 harboring gyrA mutant gene by agar dilution method.
The test system of assay [12] is Streptococcus pneumoniae. Description: Antimicrobial activity against ciprofloxacin-resistant Streptococcus pneumoniae T24 harboring gyrA mutant gene by agar dilution method.
The test system of assay [13] is Streptococcus pneumoniae. Kind of assay: Antimicrobial activity against ciprofloxacin-resistant Streptococcus pneumoniae T26 harboring parC mutant gene by agar dilution method.
The subject of assay [14] is Streptococcus pneumoniae. Description: Antimicrobial activity against ciprofloxacin-resistant Streptococcus pneumoniae T30 harboring gyrA mutant gene by agar dilution method.
Assay [15] relates to Streptococcus pneumoniae. Kind of assay: Antimicrobial activity against ciprofloxacin-resistant Streptococcus pneumoniae T28 harboring gyrA mutant gene by agar dilution method.
Assay [16] relates to Streptococcus pneumoniae. Kind of assay: Antimicrobial activity against ciprofloxacin-resistant Streptococcus pneumoniae T29 harboring gyrA mutant gene by agar dilution method.
Assay [17] concerns Streptococcus pneumoniae. Kind of assay: Antimicrobial activity against ciprofloxacin-resistant Streptococcus pneumoniae T6 harboring parC mutant gene by agar dilution method.
The test system of assay [18] is Streptococcus pneumoniae. Description: Antimicrobial activity against ciprofloxacin-resistant Streptococcus pneumoniae T7 harboring gyrA mutant gene by agar dilution method.
Assay [19] concerns Streptococcus pneumoniae. Description: Antimicrobial activity against ciprofloxacin-resistant Streptococcus pneumoniae T8 harboring gyrA mutant gene by agar dilution method.
Assay [20] has as its system Streptococcus pneumoniae. Description: Antimicrobial activity against ciprofloxacin-resistant Streptococcus pneumoniae T9 harboring gyrA mutant gene by agar dilution method.
Assay [21] relates to Streptococcus pneumoniae. Description: Antimicrobial activity against ciprofloxacin-resistant Streptococcus pneumoniae T11 harboring parE-ant-parC mutant gene by agar dilution method.
Assay [22] concerns Streptococcus pneumoniae. Kind of assay: Antimicrobial activity against ciprofloxacin-resistant Streptococcus pneumoniae T12 harboring gyrA mutant gene by agar dilution method.
Assay [23] relates to Streptococcus pneumoniae. Kind of assay: Antimicrobial activity against ciprofloxacin-resistant Streptococcus pneumoniae T13 harboring gyrA mutant gene by agar dilution method.
For assay [24], the system named is Streptococcus pneumoniae. Description: Antimicrobial activity against ciprofloxacin-resistant Streptococcus pneumoniae T14 harboring gyrA mutant gene by agar dilution method.

Molecules are shown by their SMILES. Converted amounts (≈) assume the structure as drawn.

From ChEMBL document CHEMBL1255248, “Fitness of Streptococcus pneumoniae fluoroquinolone-resistant strains with topoisomerase IV recombinant genes” (2008) come the findings set out here.

On to `O=C(O)c1cn(C2CC2)c2cc(N3CCNCC3)c(F)cc2c1=O` [CIPROFLOXACIN], for which the MIC (commonly the lowest concentration that inhibits growth of the organism) with Streptococcus pneumoniae [1] stood at 4 µg/mL (≈ 12.1 µM); against Streptococcus pneumoniae [2], 32 µg/mL (≈ 96.6 µM); against Streptococcus pneumoniae [3] it was 32 µg/mL (≈ 96.6 µM); against Streptococcus pneumoniae [4], 32 µg/mL (≈ 96.6 µM); in the assay on Streptococcus pneumoniae [5] it was 2 µg/mL (≈ 6.04 µM); against Streptococcus pneumoniae [6], 32 µg/mL (≈ 96.6 µM). Also, the MIC in the assay on Streptococcus pneumoniae [7] turned out to be 64 µg/mL (≈ 193 µM); in the assay with Streptococcus pneumoniae [8], 32 µg/mL (≈ 96.6 µM); with Streptococcus pneumoniae [9], 2 µg/mL (≈ 6.04 µM); against Streptococcus pneumoniae [10] it was 16 µg/mL (≈ 48.3 µM); in the assay on Streptococcus pneumoniae [11], 16 µg/mL (≈ 48.3 µM); with Streptococcus pneumoniae [12], 16 µg/mL (≈ 48.3 µM). Moreover, the MIC in the assay with Streptococcus pneumoniae [13] is 4 µg/mL (≈ 12.1 µM); against Streptococcus pneumoniae [14], 32 µg/mL (≈ 96.6 µM); against Streptococcus pneumoniae [15], 32 µg/mL (≈ 96.6 µM); in the assay with Streptococcus pneumoniae [16], 32 µg/mL (≈ 96.6 µM); against Streptococcus pneumoniae [17], 2 µg/mL (≈ 6.04 µM); in the assay with Streptococcus pneumoniae [18] it was 32 µg/mL (≈ 96.6 µM). The MIC stood at 32 µg/mL (≈ 96.6 µM) with Streptococcus pneumoniae [19]; 32 µg/mL (≈ 96.6 µM) against Streptococcus pneumoniae [20]; 2 µg/mL (≈ 6.04 µM) in the assay on Streptococcus pneumoniae [21]; 32 µg/mL (≈ 96.6 µM) with Streptococcus pneumoniae [22]; 32 µg/mL (≈ 96.6 µM) with Streptococcus pneumoniae [23]; 32 µg/mL (≈ 96.6 µM) with Streptococcus pneumoniae [24].
